Measured values: article PMC7897990, “TriTOX: A novel Trichomonas vaginalis assay platform for high-throughput screening of compound libraries” (International Journal for Parasitology: Drugs and Drug …, 2021)
Structures can show the parent of a compound that is named as a salt. Where two headings read alike, the source gives them in different places.

Columns and labels:
[1] = test system: Trichomonas vaginalis G3 trophozoites; experiment: microbe, parasite or virus in culture; settings: 48 h
[2] = test system: Trichomonas vaginalis G3 trophozoites; settings: for T.vaginalis_Absorbance_Rep1: replicate 1, raw absorbance; for T.vaginalis_Absorbance_Rep2: replicate 2, raw absorbance; for T.vaginalis_%inb_Rep1: replicate 1; for T.vaginalis_%inb_Rep2: replicate 2
[3] = test system: nontumorigenic neonatal foreskin fibroblast (NFF) cell line
[4] = read-out: T.vaginalis_%inb_Rep1
[5] = read-out: T.vaginalis_%inb_Rep2
[6] = HTS, parasite screen at 1 µg/mL
[7] = HTS single concentration, parasite screen 1 µg/mL

Compound	inhibition of growth at 1 µg/mL [1, 4] [%]	inhibition of growth at 1 µg/mL [1, 5] [%]	further results
CC[C@H](C)C(=O)O[C@H]1C[C@H](O)C=C2C=C[C@H](C)[C@H](CC[C@@H](O)C[C@@H](O)CC(=O)O)[C@H]21 [Pravastatin sodium]	13	13.6	–
O=C(O)/C=C/c1c[nH]cn1 [Urocanic acid]	8.39	13.2	–
CO[C@@H]1[C@@H](OC(N)=O)[C@@H](O)[C@H](Oc2ccc3c(O)c(NC(=O)c4ccc(O)c(CC=C(C)C)c4)c(=O)oc3c2C)OC1(C)C [Novobiocin]	4.51	4.68	–
CN(C)[C@H]1C(O)=C(C(N)=O)C(=O)[C@@]2(O)C(O)=C3C(=O)c4c(O)cccc4[C@@](C)(O)[C@H]3C[C@@H]12 [Epitetracycline hydrochloride]	11	4.41	–
COC(=O)[C@@H]1c2cc3c(c(O)c2[C@@H](O[C@@H]2O[C@@H](C)[C@H](OC)[C@@](C)(OC)[C@H]2OC)C[C@]1(C)O)C(=O)c1c(O)cc2c(c1C3=O)O[C@@H]1O[C@@]2(C)[C@H](O)[C@@H](N(C)C)[C@@H]1O [Nogalamycin]	12.8	13.3	–
CO[C@@H]1C[C@@H](C[C@H]2CC[C@H](C)[C@H]([C@@H](C)C(=O)O)O2)O[C@]2(O[C@](C)([C@H]3CC[C@@](C)([C@@H]4O[C@@H]([C@H]5O[C@@](O)(CO)[C@H](C)C[C@@H]5C)C[C@@H]4C)O3)C[C@H]2C)[C@@H]1C [Nigericin]	6.59	6.22	–
CC1=C\[C@@H](O)CC(=O)Cc2nc(co2)C(=O)N2CCC=C2C(=O)O[C@H](C(C)C)[C@H](C)/C=C/C(=O)NC\C=C\1 [Ostreogrycin A]	13.9	14.5	–
CCc1c(Cl)c(O)c(Cl)c(O)c1C(=O)O[C@H]1[C@H](O)[C@H](OC)[C@H](OC/C2=C\C=C\C[C@H](O)/C(C)=C/[C@H](CC)[C@@H](O[C@@H]3OC(C)(C)[C@@H](OC(=O)C(C)C)[C@H](O)[C@@H]3O)/C(C)=C/C(C)=C/C[C@@H]([C@@H](C)O)OC2=O)O[C@@H]1C [Fidaxomicin]	11.5	10.1	T.vaginalis_Absorbance_Rep1 [2, 6]: 0.922; T.vaginalis_Absorbance_Rep2 [2, 6]: 0.759
CS(=O)(=O)c1ccc([C@@H](O)[C@@H](CF)NC(=O)C(Cl)Cl)cc1 [Florfenicol]	7.7	9.33	T.vaginalis_Absorbance_Rep1 [2, 6]: 0.852; T.vaginalis_Absorbance_Rep2 [2, 6]: 0.749
CC[C@H]1OC(=O)C[C@@H](O)[C@H](C)[C@@H](O[C@@H]2O[C@H](C)[C@@H](O[C@H]3C[C@@](C)(O)[C@@H](O)[C@H](C)O3)[C@H](N(C)C)[C@H]2O)[C@@H](CC=O)C[C@@H](C)C(=O)/C=C/C(C)=C/[C@@H]1CO[C@@H]1O[C@H](C)[C@@H](O)[C@@H](OC)[C@H]1OC [Tylosin]	9.02	5.48	–
O=C(O)c1ccc[nH]1 [Pyrrole-2-carboxylic acid]	17.3	11.6	–
C=CC(C)(C)[C@@]12C[C@H]3C(=O)N[C@H](CC(C)C)C(=O)N3[C@H]1N(C(C)=O)c1ccccc12 [Verrucofortine]	7.92	9.69	–
CO[C@H]1C[C@H](O[C@H]2[C@H](C)[C@@H](O[C@@H]3O[C@H](C)C[C@H](N(C)C)[C@H]3O)[C@@H](C)C[C@@]3(CO3)C(=O)[C@H](C)[C@@H](O)[C@@H](C)[C@@H](C)OC(=O)[C@@H]2C)O[C@@H](C)[C@@H]1O [Oleandomycin]	13.2	4.75	–
CN(C)c1ccc(O)c2c1C[C@H]1C[C@H]3[C@H](N(C)C)C(O)=C(C(N)=O)C(=O)[C@@]3(O)C(O)=C1C2=O [Minocycline HCl]	4.51	0.77	–
CC[C@@H](C(=O)O)[C@@H]1O[C@@H]([C@@H](C)[C@H](O)[C@H](C)C(=O)[C@H](CC)[C@H]2O[C@]3(C=C[C@@H](O)[C@]4(CC[C@@](C)([C@H]5CC[C@](O)(CC)[C@H](C)O5)O4)O3)[C@H](C)C[C@@H]2C)[C@@H](C)C[C@@H]1C [Narasin]	6.14	4.3	–
Oc1cc(O)cc(O)c1 [Phloroglucinol]	13.9	12.3	–
Cc1cc(O)cc(O)c1C(=O)O [Orsellinic acid]	12.5	14.9	–
CC[C@@H]1/C=C(\C)C[C@H](C)C[C@H](OC)[C@H]2O[C@@](O)(C(=O)C(=O)N3CCCC[C@H]3C(=O)O[C@H](/C(C)=C/[C@@H]3CC[C@H](Cl)[C@H](OC)C3)[C@H](C)[C@@H](O)CC1=O)[C@H](C)C[C@@H]2OC [Pimecrolimus]	13	14	–

Compound	inhibition of growth at 1 µg/mL [1, 4] [%]	inhibition of growth at 1 µg/mL [1, 5] [%]	further results
CN(C)[C@@H]1C(O)=C(C(N)=O)C(=O)[C@@]2(O)C(O)=C3C(=O)c4c(O)cccc4[C@@](C)(O)[C@H]3[C@H](O)[C@@H]12 [Oxytetracycline]	13.3	10.7	–
OC[C@H]1O[C@@H](n2cnc3c2NC=NC[C@H]3O)C[C@@H]1O [Pentostatin]	12.7	15.8	–
CC[C@H]1OC(=O)C[C@@H](O)[C@H](C)[C@@H](O[C@@H]2O[C@H](C)[C@@H](O)[C@H](N(C)C)[C@H]2O)[C@@H](CCN2CCCCC2)C[C@@H](C)C(=O)/C=C/C(C)=C/[C@@H]1CN1CCCCC1 [Tildipirosin]	7.13	12.7	–
CN(C)c1cc(NC(=O)CNC(C)(C)C)c(O)c2c1C[C@H]1C[C@H]3[C@H](N(C)C)C(O)=C(C(N)=O)C(=O)[C@@]3(O)C(O)=C1C2=O [Tigecycline]	10	5.97	–
CC(=O)c1c(O)c(C)c(O)c2c1OC1=CC(=O)C(C(C)=O)C(=O)C12C (stereo not shown) [Usnic acid]	8.76	13.7	–
C/C(=C\C(=O)OCCCCCCCCC(=O)O)C[C@@H]1OC[C@H](C[C@@H]2O[C@H]2[C@@H](C)[C@H](C)O)[C@@H](O)[C@H]1O [Pseudomonic acid]	11.5	11.7	–
COc1ccc(C[C@H](N)C(=O)N[C@H]2[C@@H](O)[C@H](n3cnc4c(N(C)C)ncnc43)O[C@@H]2CO)cc1 [Puromycin]	12	10.7	–
C[C@H]1[C@H](C)CC[C@]2(C(=O)O)CC[C@]3(C)C(=CC[C@@H]4[C@@]5(C)CC[C@H](O)C(C)(C)[C@@H]5CC[C@]43C)[C@H]12 [Ursolic acid]	7.39	10.4	–
O=C1NC(c2c[nH]c3ccc(O)cc23)=C/C1=C1\C(=O)Nc2ccccc21 [Violacein]	11.2	11.8	–
CO[C@H]1C[C@@H]2CC[C@@H](C)[C@@](O)(O2)C(=O)C(=O)N2CCCC[C@H]2C(=O)O[C@H]([C@H](C)C[C@@H]2CC[C@H](n3cnnn3)[C@H](OC)C2)CC(=O)[C@H](C)/C=C(\C)[C@@H](O)[C@@H](OC)C(=O)[C@H](C)C[C@H](C)/C=C/C=C/C=C/1C [Zotarolimus]	10.4	6.09	–
COc1c(C)c2c(c(O)c1C/C=C(\C)CCC(=O)O)C(=O)OC2 [Mycophenolic acid]	12.2	14.1	–
C[C@@H]1C/C=C/C=C/C=C/C=C/[C@H](O[C@@H]2O[C@H](C)[C@@H](O)[C@H](N)[C@@H]2O)C[C@@H]2O[C@](O)(C[C@@H](O)C[C@H]3O[C@@H]3/C=C/C(=O)O1)C[C@H](O)[C@H]2C(=O)O [Pimaricin]	10.4	13.7	–
C=C[C@]1(C)C[C@@H](OC(=O)CSC(C)(C)CNC(=O)[C@H](N)C(C)C)[C@]2(C)[C@H](C)CC[C@]3(CCC(=O)[C@H]32)[C@@H](C)[C@@H]1O [Valnemulin]	8.39	8.96	–
CC[C@H](C)[C@H]1O[C@]2(CC[C@@H]1C)C[C@@H]1C[C@@H](C/C=C(\C)[C@@H](O[C@H]3C[C@H](OC)[C@@H](O)[C@H](C)O3)[C@@H](C)/C=C/C=C3\CO[C@@H]4[C@H](O)C(C)=C[C@@H](C(=O)O1)[C@]34O)O2 [BIA-I1150]	–	–	NFF_Activity ([3]; NFF cells, screen at 5 µg/mL): I (otherwise these were reported as inactive (I)); T.vaginalis_%inb_Rep1 ([2]; parasite screen at 1 µg/mL): 15.62%; T.vaginalis_%inb_Rep2 ([2]; parasite screen at 1 µg/mL): 12.38%
C/C=C/[C@@H]1C=C[C@@H]2C[C@H](C)CC[C@H]2[C@]1(C)/C(O)=C1/C(=O)[C@@H](CO)N(C)C1=O [Epiequisetin]	–	–	NFF_Activity ([3]; NFF_NS1 screen at 5 µg/mL): I (otherwise these were reported as inactive (I)); T.vaginalis_%inb_Rep1 [2, 6]: 11.85%; T.vaginalis_Absorbance_Rep1 [2, 6]: 0.929; T.vaginalis_%inb_Rep2 [2, 6]: 4.34%; T.vaginalis_Absorbance_Rep2 [2, 6]: 0.68
CN[C@@H]1C[C@H]2O[C@@](C)([C@@H]1OC)n1c3ccccc3c3c4c(c5c6ccccc6n2c5c31)C(=O)NC4=O [BIA-O1137]	–	–	NFF_Activity ([3]; NFF_NS1 screen 5 µg/mL, single concentration): A (active (A) compounds having >25% inhibitory activity); T.vaginalis_%inb_Rep1 [2, 7]: 63.59%; T.vaginalis_%inb_Rep2 [2, 7]: 75.50%
CC[C@@]1([C@@H]2O[C@@H]([C@H]3O[C@@](O)(CO)[C@H](C)C[C@@H]3C)C[C@@H]2C)CC[C@H]([C@]2(C)CC[C@]3(C[C@H](O)[C@@H](C)[C@@H]([C@@H](C)[C@@H](OC)[C@H](C)C(=O)O)O3)O2)O1 [Monensin A]	12.4	16.1	–
C[N+]1(C)CCC2(c3cccc4c3NC3C4(C45CC[N+](C)(C)C4Nc4ccccc45)CC[N+]3(C)C)c3ccccc3NC21.[I-].[I-].[I-] (stereo not shown) [BIA-H1942]	–	–	NFF_Activity ([3]; NFF cells, screen at 5 µg/mL): I (otherwise these were reported as inactive (I)); T.vaginalis_%inb_Rep1 ([2]; parasite screen at 1 µg/mL): 9.49%; T.vaginalis_%inb_Rep2 ([2]; parasite screen at 1 µg/mL): 13.53%
